In US20120149697A1 (priority 2009, published 2012):

Test system: ScGT1 cells
Conditions: for cells remained viable: mouse

Substance	cell viability (cytotoxicity effect)	cells remained viable [%]
fulvic acids [FA]	remain viable	94
humic acids [HA]	remain viable	96
